The subject of the experiment is LTC4. The experiment can be described thus: Antagonism in isolated guinea-pig trachea, Test method (i) (Table 3, given as LTC4 antagonism). The experiment is classed as cell-based. Conditions: Cavia porcellus, 5 min, test compound 10^-5 g/ml, given as LTC4 antagonisms. On the procedure:
(i) LTC4 and LTD4 antagonisms in guinea-pig trachea
Antagonisms for LTC4 and LTD4 were determined in isolated guinea-pig trachea prepared as spiral strip. Tracheal preparations were suspended under 1 g tension in 10 ml organ baths and they were incubated for 1 hr prior to use. Contractile responses to LTC4 (2×10^-8 g/ml) and LTD4 (2×10^-8 g/ml) were obtained after the maximal response to histamine (10^-4 M). Test compounds dissolved in 100% dimethyl sulfoxide were added to the organ baths (final concentration of 10^-5 g/ml or 10^-6 g/ml) 5 min prior to LTC4 and LTD4 addition, and then contractile responses to LTC4 and LTD4 were compared with those of control which was obtained from a paired trachea in the absence of test compounds. LTC4 - and LTD4 -induced contractions were expressed as a percentage of the maximal response to histamine. The antagonism was determined as follows:
Antagonism (%)=(1.0-% contraction in test/% contraction in […]
As for `Cc1ccc(S(=O)(=O)OCC(O)CNc2cnn(C(C)C)c(=O)c2Cl)cc1` (stereo not drawn) [Compound No. 143, 4-Chloro-5-[3-(4-methylphenylsulfonyloxy)-2-hydroxypropylamino]-2-i-propyl-3(2H)pyridazinone], at 10 µg/mL the inhibition was 26%.
The result for `CCCCc1cc(C(=O)OC)ccc1OCCCNc1cnn(C(C)C)c(=O)c1Cl` [compound 110] reads 77%; that for `CCn1ncc(NCCCOC(=O)c2ccc(Cl)cc2)c(Cl)c1=O` [Compound No. 17], 45%.
The result for `CC(C)n1ncc(N(C)CCCOc2ccc(C(=O)CCC(=O)O)cc2)c(Cl)c1=O` [compound 78] reads 32%; that for `COc1ccccc1OCCCNc1cnn(C(C)C)c(=O)c1Cl` [compound 59], 82%.
Next, `CCCc1cc(C(=O)OCC)ccc1OCCCNc1cnn(C(C)C)c(=O)c1` [Compound No. 63, 5-[3-(2-n-propyl-4-ethoxycarbonylphenoxy)propylamino]-2-i-propyl-3(2H)pyridazinone]: 54%; `CC(C)c1cc(C(=O)O)ccc1OCCCNc1cnn(C(C)C)c(=O)c1Cl` [compound 89]: 52%; `CCCc1cc(C(=O)O)ccc1OCCCNc1cnn(C(C)(C)C)c(=O)c1Cl` [compound 5]: 33%.
On to `CCc1cc(C=CC(=O)O)ccc1OCCCNc1cnn(CC)c(=O)c1Cl` [Compound No. 93, 4-Chloro-5-{3-[2-ethyl-4-(2-carboxyethenyl)phenoxy]propylamino}-2-ethyl-3(2H)pyridazinone], for which at 10 µg/mL the inhibition was 79%.
Next, `CCOc1cc(C(=O)OC)ccc1OCCCNc1cnn(C(C)C)c(=O)c1Cl` [compound 90]: 83%; `CCc1cc(C(=O)O)ccc1OCCCNc1cnn(C(C)C)c(=O)c1Cl` [compound 97]: 62%; `CCn1ncc(NCCCOc2ccccc2C)c(Cl)c1=O` [compound 57]: 83%.
The result for `COc1ccc(CCNc2cnn(C(C)(C)C)c(=O)c2Cl)cc1` [compound 19] reads 60%; that for `Cc1ccc(S(=O)(=O)OCCCNc2cnn(C(C)(C)C)c(=O)c2Cl)cc1` [Compound No. 15, 4-Chloro-5-[3-(4-methylphenylsulfonyloxy)propylamino]-2-t-butyl-3(2H)pyridazinone], 40%; that for `COC(=O)c1ccc(OCCCOc2cnn(C(C)C)c(=O)c2Cl)c(C(C)C)c1` [compound 79], 58%.
The result for `CCCc1cc(C(=O)OC)ccc1OCCCOc1cnn(CC)c(=O)c1Cl` [compound 84] reads 85%; that for `CCCc1cc(C(=O)O)ccc1OCCCNc1cnn(CC)c(=O)c1Br` [compound 119], 100%.
The compound `CCCc1cc(O)ccc1OCCCNc1cnn(CC)c(=O)c1Cl` [Compound No. 108, 4-Chloro-5-[3-(2-n-propyl-4-hydroxyphenoxy)propylamino]-2-ethyl-3(2H)pyridazinone] returned an inhibition at 10 µg/mL of 94%.
`CCn1ncc(NCCCOc2ccc(C(=O)O)cc2Cl)c(Cl)c1=O` [Compound No. 11] came in with an inhibition at 10 µg/mL of 13%.
Next, `CCn1ncc(NCC(O)COS(=O)(=O)c2ccc(C)cc2)c(Cl)c1=O` (stereo not drawn) [compound 150]: 16%.
Next, `COc1cccc(OCCCOc2cnn(C(C)(C)C)c(=O)c2Br)c1` [compound 34]: 61%; `CCCc1cc(-c2nn[nH]n2)ccc1OCCCNc1cnn(CC)c(=O)c1Cl` [compound 48]: 36%.
The result for `CCc1cc(C=O)ccc1OCCCNc1cnn(CC)c(=O)c1Cl` [Compound No. 92, 4-chloro-5-[3-(2-ethyl-4-formylphenoxy)propylamino]-2-ethyl-3(2H) pyridazinone] reads 100%.
`CCn1ncc(NCCCOc2ccc(C)cc2OC)c(Cl)c1=O` [compound 99] had an inhibition at 10 µg/mL of 51%.
Consider `C=CCc1cc(C(=O)OC)ccc1OCCCNc1cnn(CC)c(=O)c1Cl` [compound 81], for which at 10 µg/mL the inhibition was 80%.
The result for `CC(C)n1ncc(NCC(O)COc2ccccc2Cl)c(Cl)c1=O` (stereo not drawn) [compound 151] reads 47%; that for `CCCc1c(OCCCOc2cnn(C(C)(C)C)c(=O)c2Cl)ccc2c(=O)cc(C(=O)O)oc12` [compound 24], 40%.
The result for `CCCc1cc(C(=O)OC)ccc1OCCCNc1cnn(C(C)(C)C)c(=O)c1Cl` [Compound No. 3] reads 28%; that for `CCc1cc(C=CC(=O)O)ccc1OCCCNc1cnn(C(C)C)c(=O)c1Cl` [compound 95], 59%; that for `CCCc1cc(OC)ccc1OCC(O)CNc1cnn(C(C)C)c(=O)c1Cl` (stereo not drawn) [compound 160], 70%.
With `CCCc1cc(C#N)ccc1OCC(COc1cnn(C(C)C)c(=O)c1Cl)OC` (stereo not drawn) [Compound No. 172, 4-Chloro-5-[3-(2-n-propyl-4-cyanophenoxy)-2-methoxypropoxy]-2-i-propyl-3(2H)pyridazinone], the inhibition at 10 µg/mL worked out at 79%.
The result for `CCCc1cc(C(=O)OC)ccc1SCC(O)CNc1cnn(C(C)C)c(=O)c1Cl` (stereo not drawn) [Compound No. 155, 4-Chloro-5-[3-(2-n-propyl-4-methoxycarbonylthiophenoxy)-2-hydroxypropylamino]-2-i-propyl-3(2H) pyridazinone] reads 55%; that for `COc1cccc(OCC(O)COc2cnn(C(C)C)c(=O)c2Cl)c1` (stereo not drawn) [compound 140], 41%.
In the case of `CCn1ncc(NCCCOc2ccc(C(=O)O)cc2C(C)C)c(Cl)c1=O` [compound 104], testing at 10 µg/mL gave an inhibition of 57%.
Compound `CCCc1cc(OC)ccc1OCC(O)CNc1cnn(CC)c(=O)c1Cl` (stereo not drawn) [compound 152] displayed an inhibition at 10 µg/mL of 60%.
Next, `CCn1ncc(NCC(O)COc2ccccc2Cl)c(Cl)c1=O` (stereo not drawn) [compound 159]: 44%.
Next, `CCn1ncc(NCCc2ccc(OC)c(OC)c2)c(Cl)c1=O` [Compound No. 18]: 20%; `COc1ccc(NCC(O)COc2cnn(C(C)C)c(=O)c2Cl)cc1OC` (stereo not drawn) [compound 170]: 17%; `CCn1ncc(OCCCOc2ccc(C(=O)O)cc2Cl)c(Cl)c1=O` [compound 31]: 19%.
Next, `CCCc1ccccc1OCC(O)CNc1cnn(C(C)C)c(=O)c1Cl` (stereo not drawn) [compound 144]: 84%; `CC(C)(C)n1ncc(OCCCOc2ccc(C(=O)O)cc2Cl)c(Cl)c1=O` [compound 33]: 15%; `COc1ccc(CCNc2cnn(C(C)(C)C)c(=O)c2Cl)cc1OC` [Compound No. 16]: 31%.
The compound `CCCc1cc(C#N)ccc1SCC(O)CNc1cnn(C(C)C)c(=O)c1Cl` (stereo not drawn) [Compound No. 153, 4-Chloro-5-[3-(2-n-propyl-4-cyanothiophenoxy)-2-hydroxypropylamino]-2-i-propyl-3(2H)pyridazinone] registered an inhibition at 10 µg/mL of 64%.
The result for `CCc1cc(OC)ccc1OCCCNc1cnn(CC)c(=O)c1Cl` [compound 106] reads 93%.
Next, `CCCc1cc(C(=O)OC)ccc1OCC(COc1cnn(C(C)C)c(=O)c1Cl)OC` (stereo not drawn) [compound 175]: 55%; `CCCc1cc(C(=O)OC)ccc1OCC(O)CNc1cnn(C(C)C)c(=O)c1Cl` (stereo not drawn) [compound 147]: 66%.
Next, `CCCc1cc(C(=O)O)ccc1OCCCOc1cnn(C(C)C)c(=O)c1Cl` [compound 86]: 59%; `CCOC(=O)c1ccc(OCCCNc2cnn(CC)c(=O)c2Cl)c(OC)c1` [compound 49]: 57%.
In turn, `CCCc1cc(C#N)ccc1OCC(CN(C)c1cnn(C(C)C)c(=O)c1Cl)OC` (stereo not drawn) [Compound No. 157, 4-Chloro-5-[3-(2-n-propyl-4-cyanophenoxv)-2-methoxypropyl-N-methylamino]-2-i-propyl-3(2H)pyridazinone] displayed an inhibition at 10 µg/mL of 62%.
Next, `CCOC(=O)c1ccc(OCCCOc2cnn(CC)c(=O)c2Cl)c(Cl)c1` [Compound No. 30, 4-Chloro-5-[3-(2-chloro-4-ethoxycarbonylphenoxy)propoxy]-2-ethyl-3(2H)pyridazinone]: 40%.
Next, `CCCc1cc(C(=O)OC)ccc1OCC(O)COc1cnn(C(C)C)c(=O)c1Cl` (stereo not drawn) [compound 174]: 78%.
Next, `CCOc1cc(C(=O)O)ccc1OCCCNc1cnn(C(C)C)c(=O)c1Cl` [compound 91]: 14%.
In turn, `CC(C)c1ccccc1OCC(O)COc1cnn(C(C)C)c(=O)c1` (stereo not drawn) [compound 169] gave an inhibition at 10 µg/mL of 50%.
Next, `CCOC(=O)c1ccc(OCCCOc2cnn(C(C)(C)C)c(=O)c2Cl)c(Cl)c1` [compound 32]: 29%; `CCCc1c(OCCCOc2cnn(C(C)(C)C)c(=O)c2Cl)ccc(C(C)=O)c1O` [Compound No. 37, 4-Chloro-5-[3-(2-n-propyl-3-hydroxy-4-acetylphenoxy)propoxy]-2-t-butyl-3(2H)pyridazinone]: 40%.
Turning to `CCOC(=O)c1ccc(OCCCNc2cnn(C(C)(C)C)c(=O)c2Cl)c(Cl)c1` [Compound No. 8], testing at 10 µg/mL gave an inhibition of 32%.
Next, `CCCc1cc(C(=O)OC)ccc1OCCCN(C)c1cnn(C(C)C)c(=O)c1Cl` [Compound No. 73, 4-Choloro-5-[3-(2-n-propyl-4-methoxycarbonylphenoxy)propyl-N-methylamino]-2-i-propyl-3(2H)pyridazinone]: 48%.

As a reminder, the inhibition is the percentage by which the read-out fell short of the control.
